In PubChem BioAssay (NCI):
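Where inhibition never reached the appropriate level, the endpoint shown equals the highest concentration tested. Otherwise, values were interpolated linearly from a five-concentration, 48-hour dose response in 96-well plates. TGI marks complete inhibition of growth.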

Experiments:
Assay in all cases: DTP human tumour cell line panel, 48 h
SN12C renal = test system: SN12C renal
MALME-3M melanoma = test system: MALME-3M melanoma
HOP-62 NSCLC = test system: HOP-62 NSCLC
MDA-N = test system: MDA-N
786-0 renal = test system: 786-0 renal
SF-268 CNS = test system: SF-268 CNS
UACC-62 melanoma = test system: UACC-62 melanoma
SF-295 CNS = test system: SF-295 CNS
RPMI-8226 leukemia = test system: RPMI-8226 leukemia
NCI-H522 lung = test system: NCI-H522 lung
SK-OV-3 ovarian = test system: SK-OV-3 ovarian

| Compound | TGI (SN12C renal) [µM] | TGI (MALME-3M melanoma) [µM] | TGI (HOP-62 NSCLC) [µM] | TGI (MDA-N) [µM] | TGI (786-0 renal) [µM] | TGI (SF-268 CNS) [µM] | TGI (UACC-62 melanoma) [µM] | TGI (SF-295 CNS) [µM] | TGI (RPMI-8226 leukemia) [µM] | TGI (NCI-H522 lung) [µM] | TGI (SK-OV-3 ovarian) [µM] |
| --- | --- | --- | --- | --- | --- | --- | --- | --- | --- | --- | --- |
| Nc1nccc(-c2c[nH]c3cc(Br)ccc23)n1 | 49.8 | > 100 | > 100 | 45.8 | 46.9 | > 100 | 47.6 | > 100 | 49.5 | 38.4 | 99.4 |
| CCCCCC1=CC(=O)C1(Cl)Cl | 72 | 27.4 | 48.8 | 28.3 | 35.8 | 55.5 | 32.2 | 62.1 | 7.87 | 15.8 | 85.4 |
| O=[N+]([O-])c1ccc2[nH]nc(OCc3ccccc3Cl)c2c1 | > 100 | > 100 | > 100 | > 100 | 59.4 | > 100 | 88.8 | > 100 | > 100 | 72.7 | 31.9 |
| Cn1c(=O)c2c(nc3n2CC(C(=O)O)N3)n(C)c1=O (configuration not stated) | > 100 | > 100 | > 100 | > 100 | > 100 | > 100 | > 100 | > 100 | > 100 | > 100 | > 100 |
| Nc1c(-c2ccc(Cl)c(Cl)c2)c2ccc([N+](=O)[O-])cc2c(=O)n1-c1nc2ccccc2s1 | 12.3 | 9.72 | > 38.6 | > 36 | 19.6 | > 39.4 | > 100 | 20.4 | > 100 | 3.02 | 28.8 |
| Cc1oc2c(cc(O)c3cc(O)ccc32)c2cccc1-2 | > 100 | > 100 | > 100 | > 100 | > 100 | > 100 | > 100 | > 100 | > 100 | > 100 | > 100 |
| CC(=O)Nn1c(=S)[nH]c2ccccc21 | > 100 | > 100 | > 100 | > 100 | > 100 | > 100 | > 100 | > 100 | > 100 | > 100 | > 100 |
